The values that follow come from US20230312646A1, “ANTIBACTERIAL PEPTIDES” (priority 2020, published 2023).

Square brackets hold non-standard residues; d marks the D form. Peptide text beside a SMILES is read from it. Cha = N[C@@H](CC1CCCCC1)C(=O)O

The target of experiment [1] is T1, Escherichia coli SC (^EcSC) (Escherichia coli, UniProt P0A988).
T1 construct: His tag (inferred from the pET15b vector and Ni-NTA purification) (N); made in house; host or cells: E. coli
Briefly: biochemical. The class given is binding.

A further experiment has as its target ^EcSC (Escherichia coli, UniProt P0A988). To be noted: SPR, J. Med. Chem. 2011; read-out: Kd previously determined by SPR; cited from earlier work.
The target in experiment [2] is T2, clamps from Pseudomonas aeruginosa (^PaSC) (Pseudomonas aeruginosa, UniProt Q9I7C4).
T2 construct: made in house
T2 sequence (Q9I7C4 whole entry): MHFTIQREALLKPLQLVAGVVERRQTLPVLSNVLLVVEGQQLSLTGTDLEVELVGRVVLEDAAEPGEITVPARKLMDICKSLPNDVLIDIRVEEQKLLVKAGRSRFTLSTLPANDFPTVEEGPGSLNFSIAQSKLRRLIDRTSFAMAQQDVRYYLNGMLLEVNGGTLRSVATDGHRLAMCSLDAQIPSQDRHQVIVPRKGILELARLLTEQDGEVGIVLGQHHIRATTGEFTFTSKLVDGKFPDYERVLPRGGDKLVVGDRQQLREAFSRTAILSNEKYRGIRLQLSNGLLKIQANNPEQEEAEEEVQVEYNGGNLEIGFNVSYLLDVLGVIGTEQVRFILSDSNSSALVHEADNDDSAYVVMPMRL
Briefly: ITC of peptides with P. aeruginosa clamp. The class given is binding. To be noted: ITC at 25° C.; means of three independant experiments, standard deviations in brackets; read-out: affinities (Kd in nM), P. aeruginosa. How it is done: (§1) ITC experiments were performed using an iTC200 or a PEAQ-ITC instrument (Microcal Malvern Panalytical). Peptides (300 or 600 µM) were titrated at 25° C. by sequential injections (usually 2 µl each) into an SC solution (30 or 60 µM). Data were corrected for heat of injection by subtracting the signal of the titration of peptides into proteiN-free buffer solution (Hepes 10 mM pH 7.4, NaCl 0.15 M, EDTA 3 mM). Each titration was performed at least twice. Analyses of experimental data were performed following a classical treatment with the AFFINImeter software (https://www.affinimeter.com; S4S, Santiago de Compostela, Spain). In addition, kinetic information was obtained in some cases with kinITC as implemented in the software AFFINImeter.
(§2) Protein quality was assessed by DLS. The purification of clamps from other bacteria used the same procedure.
(§3) The bacterial sliding clamps present a highly conserved binding site among bacterial species. […] All these species belong to the ESKAPE group and are in the first priority bacteria list established by the World Health Organization for which new antibiotics are urgently needed.

Experiment [3] deals with clamps from Acinetobacter baumannii (^AbSC). Briefly: ITC of peptides with A. baumannii clamp. The format is binding. As to conditions: ITC at 25° C.; means of three independant experiments, standard deviations in brackets; read-out: affinities (Kd in nM), A. baumannii. The method, then: as §1, §2, §3

T1 sequence (P0A988 whole entry): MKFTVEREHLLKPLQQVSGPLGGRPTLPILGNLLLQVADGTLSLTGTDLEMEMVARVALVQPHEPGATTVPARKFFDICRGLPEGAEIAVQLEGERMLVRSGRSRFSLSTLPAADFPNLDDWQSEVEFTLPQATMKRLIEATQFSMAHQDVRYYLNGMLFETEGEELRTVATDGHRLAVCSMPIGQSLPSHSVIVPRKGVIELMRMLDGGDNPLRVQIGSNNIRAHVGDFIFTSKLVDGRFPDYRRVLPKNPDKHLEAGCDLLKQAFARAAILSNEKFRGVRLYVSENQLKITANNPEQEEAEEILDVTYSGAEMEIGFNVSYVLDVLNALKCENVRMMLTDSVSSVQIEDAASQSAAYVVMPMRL
Sequence of ^EcSC (P0A988 whole entry): as above

As usually defined, the Kd is the concentration at which binding is half-saturated. By kon is commonly meant the second-order rate constant of association. Consider `CC(=O)N[C@@H](CCC(N)=O)C(=O)N[C@@H](CC1CCCCC1)C(=O)N[C@@H](CC(=O)O)C(=O)N[C@@H](CC(C)C)C(=O)N[C@@H](Cc1ccccc1)C(=O)O` [P1, Ac-Gln-Cha-Asp-Leu-Phe-OH, reference compound] (Ac-Q[Cha]DLF-OH), for which the “ΔG” value in experiment [1] (ITC at 25° C.) was -9.2 kcal/mol. Moreover, in experiment [1] (ITC at 298.15 K (25° C.)), the “ΔG (kcal/mol)” value is recorded as -9.2 (± 0.2) kcal/mol. Besides, the dissociation constant (Kd) in experiment [1] (affinities (Kd in nM), E.coli, ITC at 25° C., means of three independant experiments, standard deviations in brackets) is 170 nM; on ^EcSC it was 170 nM; in experiment [2] it was 600 nM; in experiment [3] it was 655 nM. Also, the kon in experiment [1] (read-out: kon (M^-1.s^-1)) came out at 40000 M⁻¹ s⁻¹.
